Measurements from PMC10644391, “Targeted Reversible Covalent Modification of a Noncatalytic Lysine of the Krev Interaction Trapped 1 Protein Enables Site-Directed Screening for Protein–Protein Interaction Inhibitors” (ACS Pharmacology & Translational Science, 2023).

System: not listed separately
Experiment: HEK293 cytotoxicity, resazurin cell viability assay
Assay type: cell-based
Details: human, HEK293 cells, means ± SD, n = 3
Procedure: Maintenance of HEK293 Cells. HEK293 cell lines (American Type Culture Collection (ATCC)) were cultured in Dulbecco's Modified Eagle Medium (DMEM, Invitrogen) supplemented with 10% heat-inactivated fetal bovine serum (FBS, Gibco) and penicillin-streptomycin (1%). Cells were kept at 37 °C and 5% CO2, and were passaged every 72 hours.
Resazurin Cell Viability Assay. The cytotoxicity in HEK293 cells were determined using a resazurin cell viability assay. Test compounds in DMSO were diluted to 100x desired final assay concentration (maximum concentration of 100 µM) in eight-point dose response. 1 µL of test compounds were plated in a 96-well clear bottom tissue culture microplate. 49 µL of cell culture media was added to each well. Cells were diluted to 4 x 10^5 cells/mL, and 50 µL of this cell suspension was seeded to each well for a total of 2 x 10^4 cells/well. The assay plate was kept at 37 °C and 5% CO 2 for either 4 or 48 hours. At the end of the incubation time, 20 µL of 0.5 mM resazurin sodium salt (Alfa Aesar) solution in PBS was added to each well. The assay plates were incubated further at 37 °C for 2 hours. Fluorescence was measured at 531 nm and 595 nm excitation and emission wavelengths, respectively, using a 2104 EnVision® multilabel plate reader. CC50 values were obtained using sigmoidal curved generated with Prism GraphPad (San Diego, CA). SD values are reported as the standard deviation of the CC50 values of 3 biological replicates. All

Row | SMILES | CC50 at 48 h [µM]
1 | O=Cc1c(O)ccc2cc(-c3cccs3)ccc12 [Compound 4] | 33.9 ± 0.7
2 | O=Cc1c(O)ccc2cc(-c3ccsc3)ccc12 [Compound 15] | 38.4 ± 6.1
3 | C=CCOc1ccc2c(C=O)c(O)ccc2c1 [Compound 9] | 59.2 ± 12.9
4 | C#Cc1ccc2c(C=O)c(O)ccc2c1 [Compound 3] | > 100
5 | O=Cc1c(O)ccc2cc(-c3ccco3)ccc12 [Compound 5] | 37.1 ± 5.2
6 | O=Cc1c(O)ccc2ccc(-c3ccco3)cc12 [Compound 6] | 41.2 ± 6.7
7 | O=Cc1c(O)ccc2ccc(-c3cccs3)cc12 [Compound 16] | 31.4 ± 4.2
8 | O=Cc1c(O)ccc2cc(OC(F)F)ccc12 [Compound 10] | > 100

System: KLF2
Experiment: KLF2 gene expression in HUVECs (RT-qPCR)
Assay type: cell-based, Human
Details: HUVEC, 4-h incubation, relative to inactive control (2-hydroxy-1-naphthoic acid), 10-50 µM
Procedure: (§1) Finally, to confirm target engagement in cell-based conditions, selected HNA derivatives (i.e., 2, 3, and 5) were tested in a functional assay that specifically looks at the downstream effects of inhibiting the interaction between HEG1 and KRIT1, using qPCR. […] Here, the ability of compound 2 and HNA derivatives 3 and 5 to upregulate the same transcription factors in HUVEC after 4 h was measured.
(§2) PCR experiments in endothelial cells
(§3) Cell Culture. Human umbilical vein endothelial cells (HUVECs, Lonza) from passages 5 to 7 were grown on fibronectin‐coated 6-well plates (Corning) in complete EGM‐2 media (Lonza). HNA compounds 2, 3 and 5 were used from stocks of 10 mM in DMSO, which were placed on a rotating block at room temperature for 30 min before being diluted for use in cell culture. Compounds were used at the concentrations indicated (10-50µM) in HUVEC medium and added to cell culture wells for 4 hours. Control cells were treated with the same concentration of either DMSO (vehicle) or the non-active compound V for the same duration. Cells were maintained in a humidified incubator at 37°C and 5% CO2.
(§4) RT-qPCR. HUVECs (Lonza) using TRIzol reagent (Thermo Fisher Scientific) and the Quick-RNA MiniPrep Kit (Zymo Research) according to the manufacturer’s instructions. cDNA was transcribed from a total of 1 µg RNA per sample using qScript™ cDNA SuperMix (QuantaBio) according to the manufacturer’s protocol. KAPA SYBR FAST qPCR master mix (Roche) was used on a CFX Connect Real-Time PCR Detection System (BioRad) to determine the relative levels of human gene trascripts. The following primer sets were used: KLF2 (forward) AGACCACGATCCTCCTTGA and (reverse) […]
(§5) […]; KLF4, (forward) […] and (reverse)
(§6) ; and GAPDH (forward) […] and
(§7) (reverse) […] used as internal control. The 2−ΔΔCT method was used to analyze relative changes between vehicle control and test compounds for each data set.

Row | SMILES | KLF2 mRNA expression
9 | C#Cc1ccc2c(C=O)c(O)ccc2c1 [Compound 3] | significant elevations
10 | O=Cc1c(O)ccc2cc(-c3ccco3)ccc12 [Compound 5] | significant elevations

Target: T1, HEG1-KRIT1 PPI (Homo sapiens, UniProt O00522)
T1 construct: a recombinant FERM domain (residues 417–736) of KRIT1; made in house; host or cells: E. coli
T1 sequence (O00522 417-736): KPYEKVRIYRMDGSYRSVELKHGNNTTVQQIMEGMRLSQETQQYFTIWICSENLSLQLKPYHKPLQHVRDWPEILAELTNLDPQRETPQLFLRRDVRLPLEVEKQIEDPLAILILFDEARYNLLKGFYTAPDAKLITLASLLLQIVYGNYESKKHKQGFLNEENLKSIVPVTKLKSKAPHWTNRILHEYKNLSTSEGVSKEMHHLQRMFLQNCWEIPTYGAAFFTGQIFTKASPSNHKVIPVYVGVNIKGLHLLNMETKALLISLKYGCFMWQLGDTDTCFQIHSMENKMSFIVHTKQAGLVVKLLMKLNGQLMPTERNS
Experiment: HEG1-KRIT1 PPI fluorescence polarization (FP) time-resolved assay
Assay type: biochemical
Details: fluorescence polarization assay after 4 h of incubation; means ± SD, n = 3
Procedure: To evaluate the binding kinetics of HNA inhibitors, a fluorescence polarization (FP) time-resolved assay that uses a recombinant FERM domain (residues 417–736) of KRIT1 and a fluorescence-tagged HEG1 cytoplasmic tail (Cy5-HEG1 7-mer peptide) was developed (Supporting Information). Using HNA as a test compound, the FP data, expressed as millipolarization (mP) units, were obtained every 10 min over the course of 4–7 h. […] Thus, for practical purposes, a 4-h incubation time was established as the standard assay time for non-kinetic IC50 evaluations.
Fluorescence Polarization Assay and Optimization
The KRIT1 FERM domain (residues 417-736) was cloned into plasmid and recombinantly expressed in E. coli as previously described,1 while the Cy5-HEG1 7- mer peptide bearing the Cy5 dye as fluorescent probe was prepared by and purchased from GenScript (New Jersey, US). HEPES- buffered saline (HBS) buffer was supplemented (0.01%) with detergent Triton X -100 to minimize protein adsorption to the microplate. The assay was setup in a 96-well plate plated with 80 nM KRIT1, 4 nM Cy5- HEG1 probe, and either non-tagged HEG1 peptide or HNA as inhibitor (in 5% DMSO). To account for background fluorescence that could interfere with the assay, background wells with only test compound and Cy5 -HEG1 probe (no KRIT1) were also plated. The FP data, expressed as millipolarization (mP) units, were obtained […]
course of 4-7 hours (for kinetic characterization) using a Tecan Spark® Multimode Microplate Reader. The background mP (no KRIT1) was subtracted from mP to account for background fluorescence. All assays were done in triplicates.
Several FP assay conditions were optimized. First, the HEG1 probe engagement of KRIT1 was examined and its interaction was determined to be rapid equilibrium, thus any observed time dependance in response when an inhibitor displaces the probe is the result of inhibitor exchange kinetics and not that of the probe. Next, the affinity of KRIT1 for the probe (Kd) was examined by following the change in polarization signal as a function of a matrix of five probe concentrations and four KRIT1 concentrations (Figure S1B ). A global fit of equation 3 to polarization responses of the inhibitor vs KRIT1 concentration […]
even after 7 hours of incubation. For practical purposes, we have chosen 4 hours as our standard incubation time since it appeared that most of the inhibition has been reached at this time point. The kinetic characterization of HNA as a HEG1- KRIT1 inhibitor will be discussed in greater detail in the kinetic section […]
values to those obtained from the flow cytometry assay. Finally, to assess the robustness of the FP assay, […]
a robust assay) representing an excellent assay with clear differences between positive and negative controls.2 Evaluation of HEG1-KRIT1 inhibitors prior to the optimization of the FP assay were done using flow cytometry, while subsequent compounds were evaluated using the FP assay. All subsequent assay plates included HNA as comparison and control.
Figure S1. Optimization of fluorescence polarization (FP) assay.
HEG1-KRIT1 inhibition. (B) Optimization of KRIT1 protein and Cy5 -HEG1 probe concentrations. Dose-response curve of HNA obtained via fluorescence polarization (C) and flow cytometry (D) assays show […]
All assays were tested in technical duplicates or triplicates in at least 2 different

Row | SMILES | IC50 [µM]
11 | O=Cc1c(O)ccc2cc(-c3cccs3)ccc12 [Compound 4] | 0.47 ± 0.11
12 | O=Cc1c(O)ccc2cc(-c3ccsc3)ccc12 [Compound 15] | 1.18 ± 0.39
13 | C=CCOc1ccc2c(C=O)c(O)ccc2c1 [Compound 9] | 2.75 ± 0.19
14 | C#Cc1ccc2c(C=O)c(O)ccc2c1 [Compound 3] | 0.65 ± 0.12
15 | O=Cc1c(O)ccc2cc(-c3ccco3)ccc12 [Compound 5] | 0.69 ± 0.11
16 | O=Cc1c(O)ccc2ccc(-c3ccco3)cc12 [Compound 6] | 0.94 ± 0.12
17 | O=Cc1c(O)ccc2ccc(-c3cccs3)cc12 [Compound 16] | 0.24 ± 0.09
18 | O=Cc1c(O)ccc2cc(OC(F)F)ccc12 [Compound 10] | 2.21 ± 0.68

Same assay, conditions: global fit across six or more inhibitor concentrations; means ± SD, n = 3

Row | SMILES | HEG1-KRIT1 PPI Assay kon [M⁻¹ s⁻¹] | koff [s⁻¹]
19 | O=Cc1c(O)ccc2cc(-c3cccs3)ccc12 [Compound 4] | 200 ± 30 | 0.000114
20 | O=Cc1c(O)ccc2cc(-c3ccsc3)ccc12 [Compound 15] | 60.3 ± 7.5 | 5e-05
21 | C=CCOc1ccc2c(C=O)c(O)ccc2c1 [Compound 9] | 24.6 ± 1.81 | 2.29e-05
22 | C#Cc1ccc2c(C=O)c(O)ccc2c1 [Compound 3] | 179 ± 26.1 | 0.000118
23 | O=Cc1c(O)ccc2cc(-c3ccco3)ccc12 [Compound 5] | 108 ± 20.8 | 8.81e-05
24 | O=Cc1c(O)ccc2ccc(-c3ccco3)cc12 [Compound 6] | 52.8 ± 9.17 | 4.97e-05
25 | O=Cc1c(O)ccc2ccc(-c3cccs3)cc12 [Compound 16] | 232 ± 40.8 | 7.28e-05
26 | O=Cc1c(O)ccc2cc(OC(F)F)ccc12 [Compound 10] | 29.7 ± 2.5 | 3.08e-05

Same assay, conditions: global fit; means ± SD, n = 3; unit in Figure 2E; read-out: HEG1-KRIT1 PPI Assay Ki (koff/kon)

Row | SMILES | Ki [µM]
27 | O=Cc1c(O)ccc2cc(-c3cccs3)ccc12 [Compound 4] | 0.57 ± 0.14
28 | O=Cc1c(O)ccc2cc(-c3ccsc3)ccc12 [Compound 15] | 0.83 ± 0.2
29 | C=CCOc1ccc2c(C=O)c(O)ccc2c1 [Compound 9] | 0.93 ± 0.24
30 | C#Cc1ccc2c(C=O)c(O)ccc2c1 [Compound 3] | 0.66 ± 0.17
31 | O=Cc1c(O)ccc2cc(-c3ccco3)ccc12 [Compound 5] | 0.82 ± 0.25
32 | O=Cc1c(O)ccc2ccc(-c3ccco3)cc12 [Compound 6] | 0.94 ± 0.32
33 | O=Cc1c(O)ccc2ccc(-c3cccs3)cc12 [Compound 16] | 0.31 ± 0.09
34 | O=Cc1c(O)ccc2cc(OC(F)F)ccc12 [Compound 10] | 1.03 ± 0.25

System: KLF4
Experiment: KLF4 gene expression in HUVECs (RT-qPCR)
Assay type: cell-based, Human
Details: HUVEC, 4-h incubation, relative to inactive control (2-hydroxy-1-naphthoic acid), 10-50 µM
Procedure: as §1, §2, §3, §4, §5, §6, §7

Row | SMILES | KLF4 mRNA expression
35 | C#Cc1ccc2c(C=O)c(O)ccc2c1 [Compound 3] | significant elevations
36 | O=Cc1c(O)ccc2cc(-c3ccco3)ccc12 [Compound 5] | significant elevations

System: not listed separately
Experiment: pKa by potentiometric titration (Sirius T3)
Assay type: physicochemical
Details: potentiometric titrations, means ± SD of three titrations

Row | SMILES | pKa
37 | O=Cc1c(O)ccc2cc(-c3ccsc3)ccc12 [Compound 15] | 7.75 ± 0.08
38 | C=CCOc1ccc2c(C=O)c(O)ccc2c1 [Compound 9] | 7.34 ± 0.12
39 | C#Cc1ccc2c(C=O)c(O)ccc2c1 [Compound 3] | 6.81 ± 0.05
40 | O=Cc1c(O)ccc2cc(-c3ccco3)ccc12 [Compound 5] | 8.08 ± 0.08
41 | O=Cc1c(O)ccc2ccc(-c3ccco3)cc12 [Compound 6] | 7.5 ± 0.02
42 | O=Cc1c(O)ccc2cc(OC(F)F)ccc12 [Compound 10] | 6.95 ± 0.12
